Measurements as given in patent US20090227518A1, “COMPOSITIONS AND METHODS FOR TREATING ACTIN-MEDIATED MEDICAL CONDITIONS” (The Regents of the University of Colorado, priority 2005, published 2009).

Legend:
[1] = system: NF-κB; assay: IL-18-induced NF-κB expression; type: cell-based; details: induced by IL-18
From the text: P3 inh is also known as CE-2072 or (benzyloxycarbonyl)-L-valyl-N-[1-(2-(3-methylbenzyl)-1,3,4-oxadiazolyl]carbonyl)-2-(S)-methylpropyl]-L-prolinamide. Methods of preparing P3 inh and its derivatives are disclosed in U.S. Pat. No. 5,807,829, which is incorporated by reference herein. […] A band that corresponds to IL-18-induced NF-κB was much larger than NF-κB in controls not stimulated by IL-18. […] This was an unexpected observation as these compounds are not known to interfere with NF-κB expression.

[2] = system: HIV-1; assay: U1 monocytic cell assay (HIV-1 p24 antigen); details: same experimental condition as in Example 7
Description: The U1 cell line was derived from human monocytic U937 cells into which 2 copies of HIV-1 provirus were incorporated into host genome. […] U1 cells were maintained in T-175 polystyrene flasks (Falcon, Becton Dickinson, Franklin Lakes, N.J.) in medium and used when in log phase growth. Cells were counted in a hemacytometer, examined for viability by Trypan blue exclusion (>95% for all experiments) and resuspended in fresh medium at 2×10^6 per ml. Two-hundred fifty μl of cell suspension were added to wells of 24-well polystyrene tissue culture plates (Falcon), followed by the addition of medium or AAT to produce the final concentration to be tested in a volume of 450 μl. After 1.0 hr of incubation (37° C., 5% CO2), 50 μl of medium (control) or stimulus diluted in medium were added to wells to produce the final concentration of stimulus to be tested. The final culture volumes were 500 μl and contained 1×10^6 cells per ml. […]
Data are presented as means±SEM. […] For data expressed as percent change, the values for p24 in control cultures (medium alone) were subtracted from those for each culture-containing stimulus. […] Percent p24 in cultures containing stimulus and AAT were calculated by dividing the measured p24 by that present in cultures containing stimulus alone. The resultant fraction was expressed as a percent.

[3] = system: HIV-1 strain A018A; type: cell-based, human; details: alone or in combination
From the text: The MAGI (Multinuclear Activation of a Galactosidase Indicator)-CCR-5 cell line is a clone derived from the HeLa cell line that expresses high levels of CD4. It has been transfected with a single integrated copy of a galactosidase gene under control of the HIV-1 long terminal repeat. β-Galactosidase is expressed upon production of HIV-1 Tat protein following one round of HIV-1 replication within the cell. The MAGI-CCR-5 cell line is derived from MAGI cells into which the CCR-5 HIV-1 co-receptor gene has been incorporated. These cells constitute an assay for early infection events and can be infected with either lymphocyte-tropic or macrophage-tropic HIV-1 strains.
Cells were cultured in polystyrene T-175 flasks in medium until cells were noted to be in log growth phase. Cells were then resuspended in fresh medium and aliquoted into 24-well polystyrene plates at 4×10^4 cells per well (1.0 ml total volume). After 24 hr incubation adherent cells were 30-40% confluent and medium was removed. Two hundred μl of fresh medium was then added to each well without (negative control) or with AAT and incubated for 1 hour. AAT diluent was added to a separate well at a volume equivalent to that of the highest concentration of AAT tested (control).
One hundred thirty TCID50 of HIV-1 and DEAE dextran in medium were added to each well. T-cell tropic HIV-1 strain A018A was used. After 2 hr incubation, medium was added to each well to adjust the final volume of each well to 500 μl. Cultures were incubated for 48 hr, which allowed infection of the MAGI-CCR-5 cells. Medium was aspirated and the cells fixed for 5.0 min at room temperature by adding 1.0 ml of a 1% formaldehyde/0.2% glutaraldehyde solution in phosphate buffered saline (PBS). Fixing solution was then aspirated and cells washed with PBS. This was followed by addition of galactosidase staining solution. Fifty minutes of incubation was followed by a blinded optical count of pigmented cells under a microscope.
The MAGI-CCR-5 cell assay evaluates early events in the HIV-1 infection process. These events include cell-surface binding and internalization, uncoating, reverse transcription and translation, protein processing and Tat activity. Binding of the tat protein to a reporter construct within the MAGI-CCR-5 cells enables quantification of these early HIV-1 events.

[4] = system: peritoneal cellular infiltrate; assay: Thioglycolate-elicited peritoneal infiltration; type: in vivo, mice; details: 1 mg
Description: Peritoneal lavage was performed at 24 and 48 hours (thioglycolate) or on days 1-5 (allogeneic cells). For lavage, mice were anesthetized by isoflurane inhalation and injected immediately with 5.5 ml cold PBS containing 5% FCS and 5 U/ml heparin into the peritoneal cavity. After massaging the abdomen, peritoneal fluid was recovered with an 18.5 G needle and syringe. Recovered volumes ranged from 4.5 to 5.5 ml. Red blood cells were lysed (RBC lysing buffer, BD PharMingen) and cell counts were performed with a hemocytometer. Cells were then centrifuged and the pellet was resuspended in wash buffer containing 2% BSA, 0.1% sodium azide and 0.1% EDTA. Cells were kept at 4° C. throughout the staining procedure. Cells (at least 1×10^6/polypropylene vial) were incubated with FcγRIII/II receptor blocking antibodies (Table 1) for 10 min. […] The number of cells expressing a particular marker was calculated by multiplying percentages obtained from flow-cytometry by the concentration of cells in lavage fluid.
To address the possibility that AAT affects immune cell infiltration, two models of cell emigration were examined: thioglycolate (ThG)-elicited peritoneal infiltration, and cellular infiltration due to intraperitoneal injection of MHC-incompatible fibroblasts. […] Peritoneal lavage was performed 24 and 48 hours later and cells were counted and stained with specific antibodies for FACS analysis.

[5] = molecular target: porcine elastase (Sus scrofa, UniProt P00772); assay: Elastase neutralization assay; type: biochemical; details: cleavable color-generating substrate
Description: The anti-serine protease function of AAT was examined for its role in the inhibitory effects on HIV-1. AAT was modified to reduce its serine protease inhibitory function to undetectable levels. Quantitation of the anti-protease activity of AAT was determined using an elastase neutralization assay. In this assay porcine elastase was incubated with a cleavable substrate. Upon cleavage of the substrate by elastase, a color-generating product was released, which was quantitated using a spectrophotometer. […] The inactivated AAT was then added to U1 cells, which was then stimulated with IL-18 and compared to native AAT.

[6] = system: F-actin; assay: F-actin filament depolymerization; type: biochemical; details: added to preformed F-actin filaments
Description: In separate experiments (data not shown), F-actin filaments were produced and AAT was added to determine if AAT had depolymerization properties. As a control, Getsolin™, a protein that has known depolymerization properties, was added to F-actin filaments.

[7] = molecular target: F-actin (filamentous actin); assay: F-actin co-sedimentation, 150,000 x g, SDS-PAGE densitometry, eight replicates

Chain of porcine elastase (P00772 27-266): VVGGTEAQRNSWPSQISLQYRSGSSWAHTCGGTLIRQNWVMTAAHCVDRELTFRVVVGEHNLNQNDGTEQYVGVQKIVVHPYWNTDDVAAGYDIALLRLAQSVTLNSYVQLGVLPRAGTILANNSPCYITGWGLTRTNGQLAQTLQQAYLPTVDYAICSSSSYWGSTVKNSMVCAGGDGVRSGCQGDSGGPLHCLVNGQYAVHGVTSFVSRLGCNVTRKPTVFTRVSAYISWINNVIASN

Compound	antiviral activity in MAGI cultures [3]	other results
Cc1cccc(Cc2nnc(C(=O)C(NC(=O)[C@@H]3CCCN3C(=O)[C@@H](NC(=O)OCc3ccccc3)C(C)C)C(C)C)o2)c1 (stereo partly shown) [P3 inh]	–	NF-κB expression [1]: reduced; anti-HIV-1 effect [2]: significant anti-HIV-1 effect
AVFLM: short peptide homologous/analogous to the C-terminal region of AAT	active	–
FAFLM: short peptide homologous/analogous to the C-terminal region of AAT	active	–
FIIMI: short peptide homologous/analogous to the C-terminal region of AAT	active	–
FLFAV: short peptide homologous/analogous to the C-terminal region of AAT	active	–
FLFCI: short peptide homologous/analogous to the C-terminal region of AAT	active	–
FLFFI: short peptide homologous/analogous to the C-terminal region of AAT	active	–
FLFLI: short peptide homologous/analogous to the C-terminal region of AAT	active	–
FLFVL: short peptide homologous/analogous to the C-terminal region of AAT	active	–
FLFVV: short peptide homologous/analogous to the C-terminal region of AAT	active	–
FLMFI: short peptide homologous/analogous to the C-terminal region of AAT	active	–
FLMII: short peptide homologous/analogous to the C-terminal region of AAT	active	–
FLVFI: short peptide homologous/analogous to the C-terminal region of AAT	active	–
FMLLI: short peptide homologous/analogous to the C-terminal region of AAT	active	–
FVALM: short peptide homologous/analogous to the C-terminal region of AAT	active	–
FVFAM: short peptide homologous/analogous to the C-terminal region of AAT	active	–
FVFLA: short peptide homologous/analogous to the C-terminal region of AAT	active	–
FVFLM: short peptide from the C-terminal region of AAT	active	–
FVYLI: carboxyterminal peptide analyzed for its effect on HIV-1	active	–
Oxidized AAT: AAT oxidized by myeloperoxidase (MPO) system; loss of activity confirmed by elastase activity assay	–	cellular infiltrate [4]: did not affect cellular infiltrate; anti-protease (elastase inhibitory) activity [5]: Loss of activity
gelsolin	–	depolymerization of F-actin filaments [6]: actively dissociate
α1-antitrypsin (AAT), purified from human plasma	–	fold increase in actin-sedimented AAT against AAT only [7]: 1.7 fold; percentage of AAT sedimented in the presence of actin (AAT only = 100%) [7]: 268%
